Laboratory results: patent US20260007133A1, “HERBICIDAL COMPOSITION COMPRISING AZINE COMPOUNDS” (BASF SE, priority 2022, published 2026)

Assays:
Type in all cases: in vivo
Euphorbia heterophylla [1] = assay: Greenhouse post-emergence (POST) herbicidal test on EPHHL; conditions: 20 DAT; for % activity solo application: EPHHL
Method in brief: (§1)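 Plants grown in pots of loamy sand (~3.0% humus) to 3–15 cm height, then sprayed with compounds suspended or emulsified in water (formulated as 5% by weight emulsion concentrate). Kept at 10-25° C or 20-35° C by species; injury scored 0–100 (100 = complete destruction) at 20 DAT.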

Echinochloa crus-galli [2] = assay: Greenhouse post-emergence (POST) herbicidal test on ECHCG; conditions: Echinochloa crus-galli, post-emergence, 480 h, ECHCG POST, 20 DAT, use rate 25 gai/ha
Method in brief: as §1

Ambrosia artemisiifolia = assay: Greenhouse pre-emergence (PRE) herbicidal test on AMBEL; conditions: 20 DAT; for % activity solo application: AMBEL
Amaranthus retroflexus [3] = assay: Greenhouse post-emergence (POST) herbicidal test on AMARE; conditions: 20 DAT; for % activity solo application: AMARE
Method in brief: as §1

Euphorbia heterophylla [4] = assay: Greenhouse pre-emergence (PRE) herbicidal test on EPHHL; conditions: 20 DAT; for % activity solo application: EPHHL
Method in brief: (§2)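 Visual 0–100 rating at 20 days after treatment; 0 = normal growth, 100 = no emergence or complete kill of shoots. Pre-emergent application to seeded pots of loamy sand (~3.0% humus), species-dependent temperature 10-25° C or 20-35° C.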

Abutilon theophrasti [5] = assay: Greenhouse pre-emergence (PRE) herbicidal test on ABUTH; conditions: 20 DAT; for % activity solo application: ABUTH
Method in brief: as §2

Abutilon theophrasti [6] = assay: Greenhouse post-emergence (POST) herbicidal test on ABUTH; conditions: 20 DAT; for % activity solo application: ABUTH
Method in brief: as §1

Geranium pusillum = assay: Greenhouse post-emergence (POST) herbicidal test on GERPU; conditions: Geranium pusillum, post-emergence, 480 h, 20 DAT
Method in brief: as §1

Commelina benghalensis = assay: Greenhouse pre-emergence (PRE) herbicidal test on COMBE; conditions: 20 DAT
Method in brief: as §2

Setaria viridis = assay: Greenhouse pre-emergence (PRE) herbicidal test on SETVI; conditions: 20 DAT; for % activity solo application: SETVI
Method in brief: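 Damage was rated visually on a 0 to 100 scale at 20 days after treatment, where 0 meant normal growth and 100 meant no emergence or complete kill of above-ground parts. Compounds were applied in water to freshly sown loamy-sand pots.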

Lolium multiflorum = assay: Greenhouse pre-emergence (PRE) herbicidal test on LOLMU; conditions: 20 DAT; for % activity solo application: LOLMU
Method in brief: as §2

Amaranthus retroflexus [7] = assay: Greenhouse pre-emergence (PRE) herbicidal test on AMARE; conditions: 20 DAT; for % activity solo application: AMARE
Method in brief: as §2

Ipomoea hederacea = assay: Greenhouse post-emergence (POST) herbicidal test on IPOHE; conditions: 20 DAT; for % activity solo application: IPOHE
Procedure: The culture containers used were plastic pots containing loamy sand with approximately 3.0% of humus as substrate. The seeds of the test plants were sown separately for each species.
For the post-emergence treatment, the test plants were grown to a plant height of from 3 to 15 cm, depending on the plant habit, and only then treated with the active compounds which had been suspended or emulsified in water. To this end, the test plants were either sown directly, and grown in the same containers, or they were first grown separately as seedlings and transplanted into the test containers a few days prior to treatment.
Depending on the species, the plants were kept at 10-25° C. and 20-35° C., respectively.
The test period extended over 2 to 4 weeks. During this time, the plants were tended and their response to the individual treatments was evaluated.
Evaluation was carried out using a scale from 0 to 100. 100 means no emergence of the plants, or complete destruction of at least the above-ground parts, and 0 means no damage or normal course of growth. A good herbicidal activity is given at values of at least 70, and very good herbicidal activity is given at values of at least 85.
If not stated differently, the respective components A and B, and if appropriate, C were formulated as a 5% by weight strength emulsion concentrate and, with addition of the amount of solvent system, introduced into the spray liquor used for applying the active compound.
As indicated application was either post emergent (POST) at the respective growth stage (GS) of the weed (BBCH code), or pre-emergent (PRE).
Assessment was 20 days after treatment (DAT).

Alopecurus myosuroides = assay: Greenhouse pre-emergence (PRE) herbicidal test on ALOMY; conditions: PRE, 20 DAT; for % activity solo application: ALOMY
Method in brief: as §2

Digitaria sanguinalis = assay: Greenhouse post-emergence (POST) herbicidal test on DIGSA; conditions: POST, DIGSA, 20 DAT
Method in brief: as §1

Echinochloa crus-galli [8] = assay: Greenhouse pre-emergence (PRE) herbicidal test on ECHCG; conditions: PRE, ECHCG, 20 DAT

CC(C)N(C(=O)COc1nnc(C(F)(F)F)s1)c1ccc(F)cc1 [Flufenacet, flufenacet]
inhibition at 12.5 g/ha (Euphorbia heterophylla [1]; Euphorbia heterophylla, post-emergence, 480 h, EPHHL POST, use rate 12.5 gai/ha): 0%
inhibition at 25 g/ha (Echinochloa crus-galli [2]): 85%
inhibition at 12.5 g/ha (Ambrosia artemisiifolia; Ambrosia artemisiifolia, pre-emergence, 480 h, AMBEL PRE, use rate 12.5 gai/ha): 0%
inhibition at 12.5 g/ha (Amaranthus retroflexus [3]; Amaranthus retroflexus, post-emergence, 480 h, AMARE POST, use rate 12.5 gai/ha): 15%
inhibition at 25 g/ha (Amaranthus retroflexus [3]; Amaranthus retroflexus, post-emergence, 480 h, AMARE POST, use rate 25 gai/ha): 25%
inhibition at 12.5 g/ha (Euphorbia heterophylla [4]; Euphorbia heterophylla, pre-emergence, 480 h, EPHHL PRE, use rate 12.5 gai/ha): 10%
inhibition at 25 g/ha (Euphorbia heterophylla [4]; Euphorbia heterophylla, pre-emergence, 480 h, EPHHL PRE, use rate 25 gai/ha): 10%
inhibition at 12.5 g/ha (Abutilon theophrasti [5]; Abutilon theophrasti, pre-emergence, 480 h, ABUTH PRE, use rate 12.5 gai/ha): 0%
inhibition at 25 g/ha (Abutilon theophrasti [6]; Abutilon theophrasti, post-emergence, 480 h, ABUTH POST, use rate 25 gai/ha): 0%
inhibition at 12.5 g/ha (Geranium pusillum; GERPU POST, use rate 12.5 gai/ha): 5%
inhibition at 12.5 g/ha (Commelina benghalensis; Commelina benghalensis, pre-emergence, 480 h, COMBE PRE, use rate 12.5 gai/ha): 10%
inhibition at 25 g/ha (Commelina benghalensis; Commelina benghalensis, pre-emergence, 480 h, COMBE PRE, use rate 25 gai/ha): 35%
inhibition at 25 g/ha (Setaria viridis; Setaria viridis, pre-emergence, 480 h, SETVI PRE, use rate 25 gai/ha): 65%
inhibition at 12.5 g/ha (Lolium multiflorum; Lolium multiflorum, pre-emergence, 480 h, LOLMU PRE, use rate 12.5 gai/ha): 0%
inhibition at 25 g/ha (Lolium multiflorum; Lolium multiflorum, pre-emergence, 480 h, LOLMU PRE, use rate 25 gai/ha): 35%
inhibition at 12.5 g/ha (Amaranthus retroflexus [7]; Amaranthus retroflexus, pre-emergence, 480 h, AMARE PRE, use rate 12.5 gai/ha): 0%
inhibition at 12.5 g/ha (Ipomoea hederacea; Ipomoea hederacea, post-emergence, 480 h, IPOHE POST, use rate 12.5 gai/ha): 0%
inhibition at 25 g/ha (Ipomoea hederacea; Ipomoea hederacea, post-emergence, 480 h, IPOHE POST, use rate 25 gai/ha): 0%

CCc1cccc(C)c1N(C(=O)CCl)[C@@H](C)COC [S-Metolachlor, S-metolachlor]
% activity solo application (Alopecurus myosuroides; 25 gai/ha): 0%
% activity solo application (Alopecurus myosuroides; 50 gai/ha): 0%
% activity solo application (Euphorbia heterophylla [1]; POST, 25 gai/ha): 0%
% activity solo application (Euphorbia heterophylla [1]; POST, 50 gai/ha): 5%
% activity solo application (Digitaria sanguinalis; 25 gai/ha): 0%
% activity solo application (Digitaria sanguinalis; 50 gai/ha): 10%
% activity solo application (Ambrosia artemisiifolia; PRE, 25 gai/ha): 0%
% activity solo application (Ambrosia artemisiifolia; PRE, 50 gai/ha): 0%
% activity solo application (Amaranthus retroflexus [3]; POST, 25 gai/ha): 5%
% activity solo application (Amaranthus retroflexus [3]; POST, 50 gai/ha): 60%
% activity solo application (Euphorbia heterophylla [4]; PRE, 25 gai/ha): 0%
% activity solo application (Euphorbia heterophylla [4]; PRE, 50 gai/ha): 0%
% activity solo application (Abutilon theophrasti [5]; PRE, 25 gai/ha): 0%
% activity solo application (Abutilon theophrasti [5]; PRE, 50 gai/ha): 0%
% activity solo application (Abutilon theophrasti [6]; POST, 25 gai/ha): 0%
% activity solo application (Abutilon theophrasti [6]; POST, 50 gai/ha): 0%
% activity solo application (Commelina benghalensis; PRE, COMBE, 25 gai/ha): 10%
% activity solo application (Setaria viridis; PRE, 25 gai/ha): 10%
% activity solo application (Setaria viridis; PRE, 50 gai/ha): 75%
% activity solo application (Lolium multiflorum; PRE, 25 gai/ha): 0%
% activity solo application (Lolium multiflorum; PRE, 50 gai/ha): 0%
% activity solo application (Echinochloa crus-galli [8]; 25 gai/ha): 20%
% activity solo application (Echinochloa crus-galli [8]; 50 gai/ha): 50%
% activity solo application (Amaranthus retroflexus [7]; PRE, 25 gai/ha): 20%
% activity solo application (Amaranthus retroflexus [7]; PRE, 50 gai/ha): 20%
% activity solo application (Ipomoea hederacea; POST, 25 gai/ha): 0%
% activity solo application (Ipomoea hederacea; POST, 50 gai/ha): 0%

CCNc1nc(Cl)nc(NC(C)(C)C)n1 [Terbutylazine]
pest or weed control at 15.6 g/ha (Alopecurus myosuroides; Alopecurus myosuroides, pre-emergence, 480 h, 15.6 gai/ha): 0%
pest or weed control at 62.5 g/ha (Alopecurus myosuroides; Alopecurus myosuroides, pre-emergence, 480 h, 62.5 gai/ha): 0%
pest or weed control at 15.6 g/ha (Ambrosia artemisiifolia; Ambrosia artemisiifolia, pre-emergence, 480 h, PRE, 15.6 gai/ha): 0%
pest or weed control at 62.5 g/ha (Amaranthus retroflexus [3]; Amaranthus retroflexus, post-emergence, 480 h, POST, 62.5 gai/ha): 60%
pest or weed control at 62.5 g/ha (Euphorbia heterophylla [4]; Euphorbia heterophylla, pre-emergence, 480 h, PRE, 62.5 gai/ha): 0%
pest or weed control at 15.6 g/ha (Abutilon theophrasti [5]; Abutilon theophrasti, pre-emergence, 480 h, PRE, 15.6 gai/ha): 0%
pest or weed control at 62.5 g/ha (Abutilon theophrasti [5]; Abutilon theophrasti, pre-emergence, 480 h, PRE, 62.5 gai/ha): 0%
pest or weed control at 62.5 g/ha (Abutilon theophrasti [6]; Abutilon theophrasti, post-emergence, 480 h, POST, 62.5 gai/ha): 0%
pest or weed control at 15.6 g/ha (Commelina benghalensis; Commelina benghalensis, pre-emergence, 480 h, PRE, 15.6 gai/ha): 0%
pest or weed control at 62.5 g/ha (Commelina benghalensis; Commelina benghalensis, pre-emergence, 480 h, PRE, 62.5 gai/ha): 0%
pest or weed control at 15.6 g/ha (Lolium multiflorum; Lolium multiflorum, pre-emergence, 480 h, PRE, 15.6 gai/ha): 0%
pest or weed control at 62.5 g/ha (Amaranthus retroflexus [7]; Amaranthus retroflexus, pre-emergence, 480 h, PRE, 62.5 gai/ha): 0%
pest or weed control at 15.6 g/ha (Ipomoea hederacea; Ipomoea hederacea, post-emergence, 480 h, POST, 15.6 gai/ha): 0%

CC(C)N(C(=O)SCC(Cl)=C(Cl)Cl)C(C)C [Tri-Allate, Tri-allate]
pest or weed control at 1200 g/ha (Alopecurus myosuroides; Alopecurus myosuroides, pre-emergence, 480 h, 1200 gai/ha): 0%
pest or weed control at 600 g/ha (Euphorbia heterophylla [1]; Euphorbia heterophylla, post-emergence, 480 h, POST, 600 gai/ha): 10%
pest or weed control at 1200 g/ha (Euphorbia heterophylla [1]; Euphorbia heterophylla, post-emergence, 480 h, POST, 1200 gai/ha): 10%
pest or weed control at 600 g/ha (Ambrosia artemisiifolia; Ambrosia artemisiifolia, pre-emergence, 480 h, PRE, 600 gai/ha): 10%
pest or weed control at 1200 g/ha (Ambrosia artemisiifolia; Ambrosia artemisiifolia, pre-emergence, 480 h, PRE, 1200 gai/ha): 25%
pest or weed control at 600 g/ha (Amaranthus retroflexus [3]; Amaranthus retroflexus, post-emergence, 480 h, POST, 600 gai/ha): 25%
pest or weed control at 1200 g/ha (Amaranthus retroflexus [3]; Amaranthus retroflexus, post-emergence, 480 h, POST, 1200 gai/ha): 45%
pest or weed control at 600 g/ha (Euphorbia heterophylla [4]; Euphorbia heterophylla, pre-emergence, 480 h, PRE, 600 gai/ha): 10%
pest or weed control at 1200 g/ha (Euphorbia heterophylla [4]; Euphorbia heterophylla, pre-emergence, 480 h, PRE, 1200 gai/ha): 10%
pest or weed control at 600 g/ha (Abutilon theophrasti [5]; Abutilon theophrasti, pre-emergence, 480 h, PRE, 600 gai/ha): 10%
pest or weed control at 1200 g/ha (Abutilon theophrasti [6]; Abutilon theophrasti, post-emergence, 480 h, POST, 1200 gai/ha): 0%
pest or weed control at 600 g/ha (Geranium pusillum; POST, 600 gai/ha): 10%
pest or weed control at 600 g/ha (Commelina benghalensis; Commelina benghalensis, pre-emergence, 480 h, PRE, 600 gai/ha): 0%
pest or weed control at 600 g/ha (Setaria viridis; Setaria viridis, pre-emergence, 480 h, PRE, 600 gai/ha): 0%
pest or weed control at 600 g/ha (Lolium multiflorum; Lolium multiflorum, pre-emergence, 480 h, PRE, 600 gai/ha): 0%
pest or weed control at 1200 g/ha (Lolium multiflorum; Lolium multiflorum, pre-emergence, 480 h, PRE, 1200 gai/ha): 10%
pest or weed control at 600 g/ha (Amaranthus retroflexus [7]; Amaranthus retroflexus, pre-emergence, 480 h, PRE, 600 gai/ha): 10%
pest or weed control at 1200 g/ha (Amaranthus retroflexus [7]; Amaranthus retroflexus, pre-emergence, 480 h, PRE, 1200 gai/ha): 10%
pest or weed control at 600 g/ha (Ipomoea hederacea; Ipomoea hederacea, post-emergence, 480 h, POST, 600 gai/ha): 10%
pest or weed control at 1200 g/ha (Ipomoea hederacea; Ipomoea hederacea, post-emergence, 480 h, POST, 1200 gai/ha): 0%
